Legend:
BSA = BSA (Bos taurus, UniProt P02769); experiment: Nonspecific protein (BSA) absorption by BSA fluorescence
3T3-L1 preadipocytes = assay type: cell-based; settings: mouse, 24 h
Experimental: 3T3-L1 preadipocytes were seeded in a 96-well plate at 10^4/well. After culturing for 24 h, the preadipocytes were added with TA, TDM or TADN for another 24 h culture. The culture medium was removed, and the cells were washed twice with PBS, followed by the addition of 100 μL of fresh culture medium and 10 μL of CCK-8 for the CCK-8 assay according to the manufacturer's protocol. The UV absorbance of each well at 450 nm was recorded using a Synergy 2 multifunctional microplate reader (Bio-Tek, Winooski, Vt.).

[1] = EPR measurement of O2·− scavenging (DEPMPO trapper)
Experimental: Electron paramagnetic resonance (EPR) measurements were performed to evaluate the O2·^−- and ·OH-scavenging abilities of DNA hybrid nanostructures TADN. DEPMPO was used as the trapper. O2·^− was generated by dissolving KO2 in DMSO/crown ether (0.2 M). ·OH was produced by the Fenton-type reaction using H2O2 and CuSO4.

BSA, sequence (P02769 25-607): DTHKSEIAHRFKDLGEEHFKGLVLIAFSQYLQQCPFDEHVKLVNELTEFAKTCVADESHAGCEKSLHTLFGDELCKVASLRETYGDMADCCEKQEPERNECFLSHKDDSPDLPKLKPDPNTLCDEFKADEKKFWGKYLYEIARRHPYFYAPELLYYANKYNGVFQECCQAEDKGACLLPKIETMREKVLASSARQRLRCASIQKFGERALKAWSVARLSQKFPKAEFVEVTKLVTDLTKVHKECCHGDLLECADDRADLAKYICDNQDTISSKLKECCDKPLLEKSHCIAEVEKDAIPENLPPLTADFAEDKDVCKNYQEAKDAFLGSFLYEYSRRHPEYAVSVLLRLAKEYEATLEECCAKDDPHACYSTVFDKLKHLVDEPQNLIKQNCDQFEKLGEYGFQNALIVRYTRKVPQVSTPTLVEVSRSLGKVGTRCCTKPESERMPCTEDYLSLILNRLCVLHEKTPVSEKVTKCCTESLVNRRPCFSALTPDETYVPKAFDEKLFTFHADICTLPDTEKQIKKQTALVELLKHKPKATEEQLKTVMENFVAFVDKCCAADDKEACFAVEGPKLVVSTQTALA

## O=C(OC[C@H]1O[C@@H](OC(=O)c2cc(O)c(O)c(OC(=O)c3cc(O)c(O)c(O)c3)c2)[C@H](OC(=O)c2cc(O)c(O)c(OC(=O)c3cc(O)c(O)c(O)c3)c2)[C@@H](OC(=O)c2cc(O)c(O)c(OC(=O)c3cc(O)c(O)c(O)c3)c2)[C@@H]1OC(=O)c1cc(O)c(O)c(OC(=O)c2cc(O)c(O)c(O)c2)c1)c1cc(O)c(O)c(OC(=O)c2cc(O)c(O)c(O)c2)c1 [TA, tannic acid]
BSA
  protein adsorption: tended to absorb proteins
3T3-L1 preadipocytes
  concentration above which cytotoxicity increases: above 25 μM
[1]; EPR
  O2·−-scavenging activity: comparable scavenging activity to TADN
[1]; after 24 h
  O2·−-scavenging stability: almost disappeared
